The subject of assay [1] is Mouse preadipocyte strain 3T3-L1. In words: Inhibition of differentiation as an indication of acetic acid uptake. It is filed as cell-based. The settings on record: Mus musculus, 3T3-L1, 0.1 μM test substance, control (0.01% dimethylsulfoxide) = 100%, read-out: Rate of Uptake (%) of [2-14C] acetic acid. An outline of the steps:
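Differentiation is indexed by 1 hr [2-14C]acetic acid incorporation, measured by scintillation counting and given as uptake relative to 0.01% DMSO control (100%). Mouse 3T3-L1 preadipocytes, pre-grown 10 days, received 0.1 μM test substance throughout a 4-day insulin/IBMX/dexamethasone induction, followed by 2 days' maintenance culture.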

For assay [2], the system named is human colon cancer cells COL-2-JCK. The assay is described as follows: Inhibition of colony forming activity in human colon cancer cells. The assay is classed as cell-based. The conditions noted are these: Homo sapiens, 240 h; 1 μM test compound; 10 days; sum of colony areas vs control; read-out: Inhibition Rate (%) against the colony forming activity. A digest of the protocol:
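COL-2-JCK cells seeded at 300 cells/well and grown 10 days at 37 °C, 5% CO2 with compound at 1 μM final (0.1% DMSO). Colonies stained with crystal violet in formalin; inhibition % = (1 − treated/control colony area)×100.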

We go through two compounds from patent publication US20030134859A1 (SANKYO COMPANY, LIMITED, priority 2000, published 2003).

The inhibition is the share of the control response that was lost under treatment.

Consider `O=C(Nc1nc2ccc(Cc3ccc(F)cc3)cc2s1)c1cc([N+](=O)[O-])ccc1Cl` [Example 90, N-[6-(4-Fluorobenzyl)benzothiazol-2-yl]-(2-chloro-5-nitrophenyl)carboxamide], for which the activity at 0.1 µM in assay [1] is 60.5%. The inhibition at 1 µM in assay [2] amounted to 47%.
On to `Cc1csc(NC(=O)c2cc([N+](=O)[O-])ccc2Cl)n1` [Example 3, N-(4-Methylthiazol-2-yl)-(2-chloro-5-nitrophenyl)carboxamide], for which the activity at 0.1 µM in assay [1] turned out to be 68.9%. Further, the inhibition at 1 µM in assay [2] came to 27%.
